Assay results as given in patent publication US7449553B2, “Antibody that binds ceramidase” (Takara Bio Inc., priority 1999, dated 2008).

Target: T1, neutral/alkaline ceramidase derived from a mouse liver (Mus musculus, UniProt Q9JHE3)
T1 construct: the ceramidase purified from the mouse liver lacked the peptide of the N-terminal portion of the polypeptides encoded by the above-mentioned ORF; from tissue; host or cells: mouse liver (membrane fraction, purified by chromatography)
Test: Substrate specificity of the ceramidase (degradation of 14C-labeled sphingolipids, TLC)
Assay type: biochemical
Settings: for Degradation Ratio (%): 5 milliunits ceramidase on 100 pmol 14C-labeled sphingolipid, 25 mM Tris-HCl pH 7.5, 1% sodium cholate, 37° C., 24 hours; for Substrate specificity (in words): as shown in Table 1
Experimental: Five milliunits of the ceramidase of the present invention is acted on 100 pmol of various kinds of sphingolipids, in which the fatty acid moiety is labeled with ^14C-radioactive isotope, in […] of 25 mM Tris-hydrochloric acid buffer, pH 7.5, containing 1% sodium cholate at 37° C. for 24 hours. The reaction mixture is developed on silica gel thin layer chromatography. Thereafter, the ^14C-labeled sphingolipids and the ^14C-labeled fatty acids generated by the enzymatic reaction are detected and quantified by Imaging Analyzer BAS1000 (manufactured by Fuji Photo Film). The degradation ratio is calculated from the obtained values.

T1 sequence (Q9JHE3 75-756): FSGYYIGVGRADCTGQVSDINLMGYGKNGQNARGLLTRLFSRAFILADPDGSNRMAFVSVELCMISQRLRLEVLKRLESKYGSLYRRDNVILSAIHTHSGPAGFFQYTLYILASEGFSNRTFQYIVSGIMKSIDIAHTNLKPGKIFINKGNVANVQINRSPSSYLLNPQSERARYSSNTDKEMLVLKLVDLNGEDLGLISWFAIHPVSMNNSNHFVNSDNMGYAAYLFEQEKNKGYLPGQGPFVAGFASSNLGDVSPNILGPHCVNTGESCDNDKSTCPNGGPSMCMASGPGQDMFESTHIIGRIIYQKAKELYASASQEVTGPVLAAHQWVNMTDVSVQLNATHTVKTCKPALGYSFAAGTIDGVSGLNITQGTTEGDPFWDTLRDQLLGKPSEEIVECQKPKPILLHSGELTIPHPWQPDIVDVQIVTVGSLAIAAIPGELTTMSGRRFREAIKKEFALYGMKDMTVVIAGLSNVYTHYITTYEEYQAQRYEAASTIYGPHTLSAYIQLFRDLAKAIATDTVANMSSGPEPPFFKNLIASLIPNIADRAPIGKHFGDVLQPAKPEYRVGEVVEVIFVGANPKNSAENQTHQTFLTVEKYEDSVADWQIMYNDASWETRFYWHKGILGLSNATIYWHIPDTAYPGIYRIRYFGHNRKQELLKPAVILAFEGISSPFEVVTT

Compound	Degradation Ratio (%)	Substrate specificity (in words)
CCCCCCCCCCCCC/C=C/[C@@H](O)[C@H](CO)NC(=O)CCCCCNc1ccc([N+](=O)[O-])c2nonc12 [6-((N-(7-nitrobenz-2-oxa-1,3-diazole-4-yl)amino)hexanoyl)sphingosine]	2%	
CCCCCCCCCCCCC/C=C/[C@@H](O)[C@H](CO)NC(=O)CCCCCCCCCCCNc1ccc([N+](=O)[O-])c2nonc12 [12-((N-(7-nitrobenz-2-oxa-1,3-diazol-4-yl)amino)dodecanoyl)sphingosine]	97%	
CCCCCCCCCCCCCCCC(=O)N[C@@H](CO)[C@H](O)CCCCCCCCCCCCCCC [N-Palmitoylsphinganine]	59%	
Galactosylceramide	0%	not acting
CCCCCCCCCCCCC/C=C/[C@@H](O)[C@H](CO)NC(=O)CCCCCCCCCCC [N-Lauroylsphingosine]	63%	
Galb1-3GalNAcb1-4(NeuAca2-3)Galb1-4G1cb1-1′Cer [GM1a]	0%	not acting
CCCCCCCCCCCCCCCC(=O)N[C@@H](CO)[C@H](O)[C@H](O)CCCCCCCCCCCCCC [N-Palmitoylphytosphingosine]	5%	
CCCCCCCCCCCCC/C=C/[C@@H](O)[C@H](CO)NC(=O)CCCCCCCCCCCCCCC [N-Palmitoylsphingosine]	93%	

Continued, values first:

Degradation Ratio (%)	Substrate specificity (in words)	Compound
2%		CCCCCCCCCCCCCCCCCC(=O)N[C@@H](CO)[C@H](O)[C@H](O)CCCCCCCCCCCCCC [N-Stearoylphytosphingosine]
0%	not acting	Sphingomyelin
0%	not acting	Sulfatide
40%		CCCCCCCCCCCCCCCCCC(=O)N[C@@H](CO)[C@H](O)CCCCCCCCCCCCCCC [N-Stearoylsphinganine]
83%		CCCCCCCCCCCCC/C=C/[C@@H](O)[C@H](CO)NC(=O)CCCCCCCCCCCCCCCCC [N-Stearoylsphingosine]
